Measured values from ChEMBL document CHEMBL1127540, “Three-dimensional pharmacophores from binding data” (J Med Chem, 1994).
Starred links: 1 amine or outer side, 2 acyl side, 3 side chain; linkers in the order of their positions; H or OH if unused. Non-standard residues stand in square brackets, D forms with d. Residues, ends and D or L forms follow the SMILES beside them. X1 = O=C(C[C@H](O)[C@H](Cc1ccc(O)cc1)N[*:1])[*:2]; X9 = O=C(CP(=O)(O)[C@H](Cc1ccccc1)N[*:1])[*:2]

Molecular target: Human immunodeficiency virus type 1 protease (Human immunodeficiency virus 1, UniProt Q72874)
Test: Binding affinity to HIV-1 protease

SMILES | Ki [nM]
CCC(C)CNC(=O)[C@H](C(C)C)[C@@H](O)[C@H](O)[C@H](CC(C)C)NC(=O)OCc1ccccc1 (some centres not stated) | 363
CC(=O)N[C@@H](CO)C(=O)N[C@@H](CCC(N)=O)C(=O)N[C@@H](CC(N)=O)C(=O)N[C@@H](Cc1ccccc1)CN1CCC[C@@H]1C(=O)N[C@H](C(=O)N[C@H](C(N)=O)C(C)C)C(C)C (stereo in doubt; 70) | 12900
CC(C)(C)OC(=O)N[C@@H](Cc1ccccc1)[C@@H](O)C(=O)N[C@@H](CCC(=O)O)C(=O)N[C@@H](Cc1ccccc1)C(=O)O (stereo in doubt; 72) | 17000
CC(C)[C@H](NC(=O)CNC(=O)OCc1ccccc1)C(=O)N[C@@H](Cc1ccccc1)C(=O)C(F)(F)CCc1ccccc1 | 1
COC(=O)[C@@H](NC(=O)[C@@H](NC(=O)CP(=O)(O)[C@H](Cc1ccccc1)NC(=O)[C@H](C)NC(=O)[C@H](C)NC(=O)[C@@H](N)CO)C(C)C)C(C)C (H-SAA[X9]VV-OMe) | 4470
CC[C@H](C)[C@H](NC(=O)[C@@H]1CCCN1C[C@@H](CC(=O)[C@H](CC(N)=O)NC(=O)[C@H](CCC(N)=O)NC(=O)[C@H](CO)NC(=O)[C@@H](N)C(C)C)Cc1ccccc1)C(=O)N[C@H](C(=O)O)C(C)C | 3550
CC[C@H](C)[C@H](NC(=O)[C@@H](C[C@H](O)[C@H](CC(C)C)NC(=O)[C@H](Cc1c[nH]cn1)NC(=O)[C@H](Cc1ccccc1)NC(=O)[C@H]1CCCN1C(=O)[C@H](Cc1c[nH]cn1)NC(=O)OC(C)(C)C)C(C)C)C(=O)N[C@@H](Cc1c[nH]cn1)C(=O)O | 8.71
CC(C)(C)OC(=O)N[C@H](Cc1ccccc1)[C@H](O)CC(=O)N[C@@H](CCC(=O)O)C(=O)N[C@@H](Cc1ccccc1)C(=O)O | 3020
COC(=O)[C@@H](NC(=O)[C@@H](NC(=O)C[C@H](O)[C@H](Cc1ccc(O)cc1)NC(=O)[C@H](C)NC(=O)[C@H](C)NC(=O)[C@@H](N)CO)C(C)C)C(C)C (H-SAA[X1]VV-OMe) | 79.4
CC[C@H](C)[C@H](NC(=O)[C@H]1CCCN1C(=O)[C@H](CO)NC(=O)[C@@H](NC(=O)[C@@H]1CCCN1C(=O)[C@H](Cc1ccccc1)NC(=O)[C@H](CC(N)=O)NC(=O)[C@H](CC(C)C)NC(=O)[C@@H](NC(=O)[C@@H](N)CS)[C@@H](C)O)[C@@H](C)CC)C(=O)O | 70.8
CC(C)[C@H](NC(=O)OCc1ccccc1)C(=O)N[C@@H](Cc1ccccc1)[C@@H](O)[C@H](O)[C@H](Cc1ccccc1)NC(=O)OCc1ccccc1 | 0.219
CC(C)[C@H](NC(=O)OCc1ccccn1)C(=O)N[C@@H](Cc1ccccc1)C(=O)C(F)(F)CCc1ccccc1 | 2.19
